# In patent US6596712B2, “Treatment of carcinomas using squalamine in combination with other anti-cancer agents or modalities” (Genaera Corporation, priority 1996, dated 2003):
# Columns and labels:
# [1] = tested on: capillary beds of young chick embryos; experiment: Capillary regression in chick embryo capillary beds; assay type: in vivo; settings: one time dose 100 ng
# Description: A one time dose (100 ng) of squalamine was applied to capillary beds of young chick embryos that were 2-3 days old. After five minutes, this dose of squalamine appeared to have little effect on the capillary beds.
# The capillary bed also was observed after sixty minutes. At this time, it was noted that some of the capillary vessels were beginning to re-appear, but only the more major vessels were re-appearing. The small vessels were not re-appearing at that time. Four to five days after the one time squalamine treatment, the effect of the squalamine dose was no longer apparent, but newly formed capillaries in the embryos remained susceptible to squalamine induced regression for a limited time while they were newly formed.
# From this test, applicants concluded that squalamine-induced capillary regression is reversible, at least with respect to certain capillaries.
# [2] = biological target: T1, rabbit NHE3 with 76 C-terminal amino acids removed (Oryctolagus cuniculus, UniProt P26432); experiment: Rabbit NHE3 with the 76 C-terminal amino acids removed; assay type: cell-based
# T1 construct: expressed in transfected cells
# Description: This NHE3 inhibiting activity of squalamine has been mapped to the 76 C-terminal amino acids on the NHE3 molecule. […] Thus, the 76 C-terminal amino acids of NHE3 are the site of inhibition by squalamine.
# [3] = tested on: transfected PS 120 fibroblast cells; experiment: LDH leakage from transfected cells; assay type: cell-based; settings: during NHE inhibiting effect
# Description: In the transfected cells used in this test, it took at least 30 minutes before the NHE3 inhibition effect induced by squalamine was observed.
# rabbit corneas = experiment: Inflammation in rabbit cornea without angiogenic stimulus; assay type: in vivo; settings: pellets with 2%, 10% and 20% squalamine by weight
# Description: In the rabbit corneal micropocket assay test, if the rabbit cornea becomes inflamed, this inflammation can lead to the formation of new blood vessels in the cornea. Such inflammation would skew the test results. Therefore, tests were conducted to determine whether squalamine, in and of itself, was responsible for any inflammatory response in the cornea. Several non-bioresorbable ethylene/vinyl acetate copolymer pellets were loaded with different concentrations of squalamine, namely, 2%, 10%, and 20% squalamine, by weight.
# [4] = tested on: human brain capillary endothelial cells; experiment: Growth factor stimulated growth of human brain capillary endothelial cells; assay type: cell-based
# Description: Thus, as the tumor puts out a variety of different growth factors, squalamine has an inhibitory effect on several.
# [5] = tested on: H460 human lung adenocarcinoma line; experiment: Nude mouse xenograft model of lung cancer with cisplatin, H460; assay type: in vivo; settings: started on day 4 or 5, daily i.p.
# Description: Studies in a nude mouse xenograft model of lung cancer have been carried out using several human lung cancer lines which differ in their growth rate. […] The experimental lung cancer model design involves subcutaneous injection of 5×10^6 tumor cells followed by a single injection of the chemotherapeutic drug on day 3 or 4. […] Groups of mice receiving squalamine alone started receiving the aminosterol on the same day as aminosterol treatment in the combination chemotherapy groups. Tumor volumes were then determined at termination of the experiment and compared.
# C4-2 cells = experiment: C4-2 cell growth in vitro ([3H]-thymidine incorporation); assay type: cell-based, human
# Description: The anti-proliferative effect of squalamine was evaluated in tissue culture by both crystal violet staining and [^3H]-thymidine incorporation, on the LNCaP/C4-2 human prostate cancer progression model. Developed by applicants' laboratory, this lineage-derived cell line recapitulates the progression of human neoplastic prostate disease from an androgen-dependent and minimally metastatic condition (LNCaP cells) to an androgen-independent (defined as being able to proliferate in castrate hosts) and highly aggressive state (C4-2 subline).
# H460 = H460 lung tumor xenograft with carboplatin; assay type: in vivo, nude BALBc mice; settings: carboplatin 60 mg/kg i.p. single dose, squalamine 20 mg/kg once daily for 5 days
# Description: About 5×10^6 cells from each of two human lung tumor lines, H460 (a rapidly proliferating large cell carcinoma cell line, ATCC HTB-177) and Calu-6 (an anaplastic carcinoma, ATCC HTB-56), were inoculated subcutaneously in the right foreleg of nude BALBc mice. Once tumors were visible (3-5 days) with a mean volume of approximately 50-80 mm^3, mice were treated intraperitoneally with 60 mg/kg carboplatin (single dose) or 20 mg/kg/squalamine (once daily for 5 days) or a combination of carboplatin and squalamine. There were 8 mice per group. Tumor growth inhibition was scored by quantifying the size of tumors once control tumors reached a size of 1.0 gram and determining the ratio of mean treated tumor size to mean control tumor size (T/C). Tumor growth inhibition was then scored as 100% x [1-(T/C)]. A separate antitumor activity variable, tumor growth delay, was scored for the tumors by determining the length of time it required for the mean tumor size in a treatment group to reach a size of 500 mm^3 (B. A. Teicher et al., Anticancer Research 18, 2567-2574 (1998)). The tumor growth inhibition seen with carboplatin plus squalamine was greater than that seen with carboplatin or squalamine alone. The relative inactivity of squalamine as a single agent by this assay endpoint supports the idea that squalamine is synergistic with carboplatin in the inhibition of these two human lung tumor xenografts. Similarly, it was determined that squalamine enhanced the tumor growth delay caused by carboplatin by an enhancement factor of >2.3 (Table 7).
# NHE1 = NHE1 (Homo sapiens, UniProt P19634); experiment: NHE activity in PS 120 fibroblasts transfected with human NHE1; assay type: cell-based; design: expressed in transfected cells; host or cells: PS 120 NHE-deficient fibroblasts; settings: 7 μg/ml squalamine; acid loaded cells
# Description: The following describes the test used to determine that squalamine inhibits NHE3, but not NHE1 or NHE2. NHE deficient fibroblast cells (PS 120) transfected with an individual human NHE gene were loaded with a pH sensitive dye 2′7′-bis(2-carboxyethyl)-5,6-carboxyfluorescein (BCECF). NHE activity was measured by spectrofluorometric methods using this dye and by amiloride sensitive isotopic ^22Na^+cellular uptake. The cells were acidified by exposure to ammonium chloride in the absence of sodium to eliminate sodium and deactivate the proton pumps. The ammonium chloride was washed out by exposing the cells to tetramethyl ammonium chloride in bicarbonate free medium. […] Sodium then was added back at various concentrations (see the abscissa of FIGS. 5a and 5b) to drive the antiporters (human NHE3 in FIG. 5a and human NHE1 in FIG. 5b). The antiporters were driven at different rates, as evidenced by the cellular pH change rate, depending on the amount of sodium added.
# T1 sequence (P26432 30-756): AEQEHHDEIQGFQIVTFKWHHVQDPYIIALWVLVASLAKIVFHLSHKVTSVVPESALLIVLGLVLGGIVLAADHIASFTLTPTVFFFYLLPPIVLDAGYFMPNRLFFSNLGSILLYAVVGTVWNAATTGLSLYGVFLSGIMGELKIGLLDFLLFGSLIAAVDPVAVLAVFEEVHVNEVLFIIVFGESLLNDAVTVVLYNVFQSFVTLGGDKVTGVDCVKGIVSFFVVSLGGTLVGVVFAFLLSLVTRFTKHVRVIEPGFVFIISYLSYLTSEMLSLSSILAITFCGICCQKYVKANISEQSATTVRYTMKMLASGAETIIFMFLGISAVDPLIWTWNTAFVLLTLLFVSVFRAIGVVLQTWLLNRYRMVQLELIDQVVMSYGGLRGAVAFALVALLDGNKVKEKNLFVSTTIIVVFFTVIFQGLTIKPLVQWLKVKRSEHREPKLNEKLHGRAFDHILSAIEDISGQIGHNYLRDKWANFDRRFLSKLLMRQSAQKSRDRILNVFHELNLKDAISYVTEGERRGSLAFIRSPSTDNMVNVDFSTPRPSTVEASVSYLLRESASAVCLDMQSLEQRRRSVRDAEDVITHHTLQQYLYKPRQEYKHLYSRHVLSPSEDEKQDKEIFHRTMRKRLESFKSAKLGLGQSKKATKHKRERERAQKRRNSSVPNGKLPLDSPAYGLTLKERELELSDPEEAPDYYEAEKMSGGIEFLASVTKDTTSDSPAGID
# NHE1, sequence (P19634 whole entry): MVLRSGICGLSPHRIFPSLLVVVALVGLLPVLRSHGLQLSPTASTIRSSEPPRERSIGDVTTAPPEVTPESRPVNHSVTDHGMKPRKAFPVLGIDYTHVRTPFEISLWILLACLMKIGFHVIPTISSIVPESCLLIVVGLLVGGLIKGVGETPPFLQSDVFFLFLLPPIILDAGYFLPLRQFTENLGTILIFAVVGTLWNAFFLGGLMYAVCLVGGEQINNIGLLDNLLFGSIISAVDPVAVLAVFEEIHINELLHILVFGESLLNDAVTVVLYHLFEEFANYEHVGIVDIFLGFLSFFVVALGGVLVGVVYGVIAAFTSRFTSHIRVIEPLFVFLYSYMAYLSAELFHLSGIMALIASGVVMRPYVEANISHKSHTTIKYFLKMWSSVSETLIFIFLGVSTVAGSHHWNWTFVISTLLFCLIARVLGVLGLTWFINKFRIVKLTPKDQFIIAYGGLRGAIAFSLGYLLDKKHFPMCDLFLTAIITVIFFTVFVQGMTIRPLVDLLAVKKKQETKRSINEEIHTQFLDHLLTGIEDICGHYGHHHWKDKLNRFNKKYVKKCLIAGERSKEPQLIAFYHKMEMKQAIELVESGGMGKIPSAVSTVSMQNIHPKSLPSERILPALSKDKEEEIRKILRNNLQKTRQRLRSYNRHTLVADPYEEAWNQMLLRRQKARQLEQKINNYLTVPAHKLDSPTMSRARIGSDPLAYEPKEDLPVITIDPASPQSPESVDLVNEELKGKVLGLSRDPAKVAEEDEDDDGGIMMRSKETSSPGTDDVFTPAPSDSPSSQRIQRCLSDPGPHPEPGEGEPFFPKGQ
compound,measurement,setting,value
"CC(C)[C@@H](CC[C@@H](C)[C@H]1CC[C@H]2[C@@H]3[C@H](O)C[C@H]4C[C@@H](NCCCNCCCCN)CC[C@]4(C)[C@H]3CC[C@]12C)OS(=O)(=O)O [Squalamine, squalamine]",effect on capillary beds,[1]; after five minutes,little effect
same,effect on capillary beds,[1]; after forty minutes,additional capillary regression was observed
same,effect on capillary beds,[1]; in twenty minutes,the capillary bed appeared to be disappearing
same,effect on activity of NHE3 lacking the 76 C-terminal amino acids,[2],virtually no effect
same,LDH leakage from the cell,[3],absence of lactase dehydrogenase (LDH) leakage
same,inflammation in the cornea,rabbit corneas,did not induce inflammation
same,"growth stimulation induced by b-FGF, PDGFbb, scatter factor, conditioned tumor media, human brain cyst fluid",[4],interfere with growth stimulation
same,"tumor growth, monotherapy",[5],minimal effects on tumor growth
same,"growth of C4-2 cells, squalamine by itself",C4-2 cells; no exogenous VEGF,nominal effect
same,C4-2 proliferation,"C4-2 cells; with addition of exogenous VEGF, to a greater extent than LNCaP",inhibited
same,Tumor Growth Inhibition (T/C),H460,6%
same,effect on human NHE1 antiporter (pH change rate),NHE1,no effective difference in the pH change rate
